Patent US12042492B2 (priority 2020, dated 2024)
“Also recorded” adds a separate entry of the source. Marks after values point to notes of the source that are not given here.

Experiments:
Type in all cases: cell-based, mouse
N2a cells [1] = experiment: Cell viability (MTT assay) in N2a cells; details: ligand treated N2a cells relative to untreated cells; P=0.038
Protocol: (§1) The N2a cells grown for 6 days in a serum-free medium (1:1 mixture of DMEM and OptiMEM, plus penicillin and streptomycin (Invitrogen, Carlsbad, CA, USA) until the cells developed neuronal processes. As shown in (FIG. 10), these cells were used for 4 groups—one control group and 3 treatment groups. 1) untreated N2a cells (the control group), 2) N2a cells treated with ligand 1 (N2a+ligand 1), 3) N2a cells transfected mAPP with the (lipofectamine) (20 μM final concentration for 6 hrs (mAPP), 4) N2a cells transfected with mAPP cDNA for 6 hrs, treated with ligand 1 (mAPP+ligand 1 treatment group), N2a cells treated with ligand 1 for 24 hrs and then treated with the mAPP cDNA for 6 hrs (ligand 1+mAPP treatment group). As shown in (FIG. 10), the inventors performed 4 independent cell cultures and treatments for all experiments (n=4).
Cell viability and apoptotic cell death MTT assay. Ligand 1 treated N2a cells, cell based apoptosis assay was performed using Cellometer Vision CBA Image Cytometry System (Nexcelom Bioscience LLC, Lawrence, MA) with two fluorophore Annexin V-FITC and Propidium Iodide (PI) staining solution, according to manufacturer's instructions. Briefly, cells were harvested using trypsin, then spin down at 300 g for three minutes and pellets were washed with 1×PBS, cells were counted using hematocytometer. […]

N2a cells [2] = experiment: qRT-PCR mRNA expression in N2a cells treated with ligand 1
Protocol: as §1
mRNA levels of mitochondrial dynamics and mitochondrial biogenesis and synaptic genes. Using the reagent TriZol (Invitrogen), the inventors isolated total RNA from 4 independent treatments of N2a cells (n=4) from control (untreated N2a cells) and experimental treatments (N2a cells treated with Ligand 1; N2a cells transfected with mAPP; N2a cells transfected with mAPP and then treated with Ligand 1. Using primer express Software (Applied Biosystems), the inventors designed the oligonucleotide primers for the housekeeping genes β-actin, GDPH; APP-related genes (APP, BACE1 and PSN1); mitochondrial structural genes; fission (Drp1 and Fis1); fusion genes (MFN1, MFN2, Opa1) (54), mitochondrial biogenesis genes (PGC1α, Nrf1, Nrf2, and Tfam) (Manczak et al., 2019), and synaptic proteins (SYN, PSD95 and MAP2). The primer sequences and amplicon sizes are listed in (Table 1). With SYBR-Green chemistry-based quantitative real-time RT-PCR, the inventors measured mRNA expression of the genes mentioned above as described by Manczak et al. 2019(54). Briefly, 2 μg of DNAse-treated total RNA was used as starting material, to which the inventors added 1 μl of oligo (dT), 1 μl of 10 mM dNTPs, 4 μl of 5× first strand buffer, 2 μl of 0.1 M DTT, and 1 μl RNAse outout. The reagents RNA, dT), and dNTPs were mixed first, then heated at 65° C. for 5 min, and finally chilled on ice until the remaining components were added. The samples were incubated at 42° C. for 2 min, and then 1 μl of Superscript II (40 U/μl) was added. The samples were then incubated at 42° C. for 50 min, at which time the reaction was inactivated by heating at 70° C. for 15 min.
Quantitative real-time PCR amplification reactions were performed in N2a cells in an ABI Prism 7900 sequence detection system (Applied Biosystems, Foster City, CA) in a 25-μl volume of total reaction mixture. The reaction mixture consisted of 1×PCR buffer containing SYBR-Green; 3 mM MgCl2; 100 nm of each primer; 200 nm of dATP, dGTP, and dCTP each; 400 nm of dUTP; 0.01 U/μl of AmpErase UNG; and 0.05 U/μl of AmpliTaq Gold. A 20 ng cDNA template was added to each reaction mixture.
The CT-values of β-actin was tested to determine the unregulated endogenous reference gene in N2a cells that were treated with Aβ and protective molecules, and in untreated N2a cells. In the latter case, the CT-value was similar in untreated and N2a cells treated with MTAs and Aβ. The CT-value is an important quantitative parameter in real-time PCR analysis as described in Gutala and Reddy (2004) (55). All RT-PCR reactions were carried out in triplicate, with no template control. The PCR conditions were: 50° C. for 2 min and 95° C. for 10 min, followed by 40 cycles of 95° C. for 15 sec and 60° C. for 1 min. The fluorescent spectra were recorded during the elongation phase of each PCR cycle. To distinguish specific amplicons from non-specific amplifications, a dissociation curve was generated. […]

mAPP N2a cells = experiment: Immunoblotting analysis of protein levels in mAPP N2a cells; details: immunoblot; for Nrf1 protein level / Nrf2 protein level: P=0.004
[3] = N2a + Ligand1 relative to untreated N2a cells
[4] = N2a + Ligand1 relative to untreated N2a cells, negative = decrease
[5] = ligand 1 treated N2a cells relative to untreated cells, size of the decrease
[6] = ligand 1 treated N2a cells relative to untreated cells, size of the decrease, no statistical significance
[7] = mAPP+ligand 1 relative to mAPP cells, P=0.001
[8] = mAPP+ligand 1 relative to mAPP cells, P=0.002, listed as ligand 1
[9] = mAPP+ligand 1 relative to mAPP cells, listed as ligand 1
[10] = mAPP+ligand 1 relative to mAPP cells, listed as ligand1
[11] = mAPP+ligand 1 relative to mAPP cells, P=0.01, listed as ligand 1
[12] = mAPP+ligand 1 relative to mAPP cells, P=0.01, listed as ligand1
[13] = mAPP+ligand 1 relative to mAPP cells, P=0.02

[(6As,8S,10aS,12aS)-10a, 12a-dimethyl-2-oxo-3,4,4a,4b,5,6,6a,7,8,9,10,10b,11,12-tetradecahydro-1H-naphtho[2,1-f]quinolin-8-yl] 4-[4-[bis(2-chloroethyl)amino]phenyl]butanoate [Ligand 1]
Cell viability (N2a cells [1]): significantly increased | mRNA fold change Mfn1 (N2a cells [2]; [3]): 1.1 fold | mRNA fold change Mfn2 (N2a cells [2]; [3]): 1.2 fold | mRNA fold change Nrf1 (N2a cells [2]; [3]): 1.2 fold | mRNA fold change Nrf2 (N2a cells [2]; [3]): 1.3 fold | mRNA fold change OPA1 (N2a cells [2]; [3]): 1.4 fold | mRNA fold change PSD95 (N2a cells [2]; [3]): 1.2 fold | mRNA fold change Synaptophysin (N2a cells [2]; [3]): 1.4 fold | mRNA fold change TFAM (N2a cells [2]; [3]): 1.2 fold | mRNA fold change PGC1a (N2a cells [2]; N2a + Ligand1 relative to untreated N2a cells, listed as Ligand1): 1.6* fold | mRNA fold change PGC1a (N2a cells [2]; N2a + Ligand1 relative to untreated N2a cells, listed as ligand 1): 1.6 fold | mRNA fold change APP (N2a cells [2]; [4]): −1.2 fold | mRNA fold change BACE1 (N2a cells [2]; [4]): −1.8** fold | mRNA fold change Drp1 (N2a cells [2]; [4]): −1.1 fold | mRNA fold change Fis1 (N2a cells [2]; [4]): −1.1 fold | mRNA fold change Presenilin1 (N2a cells [2]; [4]): −1.3 fold | APP mRNA, fold decreased (N2a cells [2]; [5]): 1.8 fold | BACE1 mRNA, fold decreased (N2a cells [2]; [5]): 1.2 fold | PS1 mRNA, fold decreased (N2a cells [2]; [5]): 1.3 fold | Drp1 mRNA, fold reduced (N2a cells [2]; [6]): 1.1 fold | Fis1 mRNA, fold reduced (N2a cells [2]; [6]): 1.1 fold | BACE1 protein level (mAPP N2a cells; ligand 1 treated cells relative to mAPP cells): significantly reduced | C-terminal fragment C99 protein level (mAPP N2a cells; [7]): significantly decreased; also recorded: significantly reduced | Fis1 protein level (mAPP N2a cells; [7]): significantly decreased | C-terminal fragment C83 protein level (mAPP N2a cells; [8]): significantly decreased; also recorded: significantly reduced | Mfn1 protein level (mAPP N2a cells; [8]): increased | Mfn1 protein level (mAPP N2a cells; mAPP+ligand 1 relative to mAPP cells, P=0.002, listed as ligand1): significantly increased | Nrf1 protein level (mAPP N2a cells; [9]): increased | Nrf2 protein level (mAPP N2a cells; [9]): increased | Nrf1 protein level (mAPP N2a cells; [10]): significantly increased | Nrf2 protein level (mAPP N2a cells; [10]): significantly increased | Drp1 protein level (mAPP N2a cells; mAPP+ligand 1 relative to mAPP cells, P=0.01): significantly decreased | Opa1 protein level (mAPP N2a cells; [11]): increased | PGC1α protein level (mAPP N2a cells; [11]): increased | Opa1 protein level (mAPP N2a cells; [12]): significantly increased | PGC1α protein level (mAPP N2a cells; [12]): significantly increased | PSD95 protein level (mAPP N2a cells; [13]): significantly increased | Synaptophysin protein level (mAPP N2a cells; [13]): significantly increased | Full-length mutant APP protein level (mAPP N2a cells; mAPP+ligand 1 relative to mAPP cells, P=0.03): significantly decreased; also recorded: significantly reduced | MAP2 protein level (mAPP N2a cells; mAPP+ligand 1 relative to mAPP cells, P=0.04): significantly increased | Mfn2 protein level (mAPP N2a cells; [9]): increased | TFAM protein level (mAPP N2a cells; [9]): increased | Mfn2 protein level (mAPP N2a cells; [10]): significantly increased | TFAM protein level (mAPP N2a cells; [10]): significantly increased
